Results from US9265189B2, “Method for reducing damage by harmful organisms in corn cultivation” (SUMITOMO CHEMICAL COMPANY, LIMITED, priority 2012, dated 2016).

What was measured:
Assay type in all cases: in vivo
Rhopalosiphum padi = assay: Green house cup test, furrow drip treatment, Rhopalosiphum padi on corn (Example 6); settings: insects released 10 days after seeding, counted 7 days after insect releasing, 100×(A−B)/A
Procedure: A plastic cup (diameter 7 cm) having a volume of 390 ml was filled with a soil, a furrow was formed to a depth of 3 cm from the soil surface, the formed furrow was drip-treated with each of water-diluted liquids of a thiamethoxam water soluble powder (using a 10.0% preparation, trade name: Actara Water Soluble Powder, manufactured by Syngenta Japan K.K.), an imidacloprid water dispersible granule (using a 50.0% preparation, trade name: Admire Water dispersible Granule, manufactured by Bayer CropScience K.K.) and a thiacloprid water dispersible granule (using a 30.0% preparation, trade name: Bariard Water Dispersible Granule, manufactured by Bayer CropScience K.K.) so as to achieve the application amount described in Table 6, and then seeded with corn (variety name: Pioneer 32K61, hybrid variety) at a rate of one grain per cup, and the soil on the side of the furrow was gathered together to close the furrow. Corn was grown in a usual green house.
10 days after seeding of corn, 10 insects of Rhopalosiphum padi were released in each cup. This is called a treatment section.
On the other hand, except that a chemical was not applied, corn was grown in a usual green house in the same manner as in the treatment section, and 10 insects of Rhopalosiphum padi were released. This is called a non-chemical-treatment section.
7 days after insect releasing, the number of Rhopalosiphum padi was investigated, and a preventive value was calculated using the following equation. The results are shown in Table 6. preventive value=100×(A−B)/A
A: number of insects during investigation of non-chemical-treatment section
B: number of insects during investigation of treatment section

[1] = tested on: Diabrotica virgifera virgifera and Agriotes lineatus; assay: Field test, lodge rate, imidacloprid and cyprosulfamide in-furrow (Example 10); settings: imidacloprid 120 g/ha together with cyprosulfamide 15 g/ha in-furrow spray 125 L/ha, thiuram-treated seed, 165 days after application; example in present tense
Source text: A chemical fertilizer (N:P:K=15:15:15) is applied to the soil surface of a cultivated land at 300 kg/ha, and the cultivated land is then plowed. 7 days after fertilization, for suppressing generation of weeds, the soil surface of the whole cultivated land is spray-treated with a mixed liquid containing thiencarbazone-methyl and isoxaflutole, each of which being a herbicide, at 150 L/ha so that the application amounts of thiencarbazone-methyl and isoxaflutole are 9.2 g/ha and 23 g/ha, respectively. 21 days after fertilization, using a pneumatic seeder (disk furrow opener) equipped with a power sprayer, a cultivated land is ditched at intervals of 75 cm to a depth of 3 cm from the soil surface, and the furrow is seeded with corn (Zea Mays; hybrid variety). The furrow is seeded at intervals of 20 cm using, as a seed of corn, one treated with thiuram. A seeding density of corn is 70000 seeds/ha. […] 165 days after application of the aqueous suspension of imidacloprid, the number of plants of corn lodged due to damage by Diabrotica virgifera virgifera and Agriotes lineatus in the furrows of the treatment section and the non-treatment section, for which the number of plants of corn germinated is investigated, is investigated, a lodge rate is calculated in accordance with the following equation, and then an average lodge rate for the four investigation sections is determined.

[2] = tested on: Diabrotica virgifera virgifera and Agriotes lineatus; assay: Field test, lodge rate, imidacloprid in-furrow, herbicides plus cyprosulfamide on soil (Example 8); settings: imidacloprid 120 g/ha in-furrow spray 125 L/ha, thiuram-treated seed, 165 days after application; example in present tense
Source text: A chemical fertilizer (N:P:K=15:15:15) is applied to the soil surface of a cultivated land at 300 kg/ha, and the cultivated land is then plowed. 7 days after fertilization, for suppressing generation of weeds, the soil surface of the whole cultivated land is spray-treated with a mixed liquid containing thiencarbazone-methyl and isoxaflutole, each of which being a herbicide, and cyprosulfamide which is a safener at 150 L/ha so that the application amounts of thiencarbazone-methyl, isoxaflutole and cyprosulfamide are 9.2 g/ha, 23 g/ha and 15 g/ha, respectively. 21 days after fertilization, using a pneumatic seeder (disk furrow opener) equipped with a power sprayer, a cultivated land is ditched at intervals of 75 cm to a depth of 3 cm from the soil surface, and the furrow is seeded with corn (Zea Mays; hybrid variety). […] 165 days after application of the aqueous suspension of imidacloprid, the number of plants of corn lodged due to damage by Diabrotica virgifera virgifera and Agriotes lineatus in the furrows of the treatment section and the non-treatment section, for which the number of plants of corn germinated is investigated, is investigated, a lodge rate is calculated in accordance with the following equation, and then an average lodge rate for the four investigation sections is determined.

SMILES | Preventive value (Rhopalosiphum padi; application amount 20 g/ha) | Preventive value (Rhopalosiphum padi; application amount 200 g/ha) | Lodge rate compared to non-treatment section [1] | Lodge rate compared to non-treatment section [2]
N#C/N=C1\SCCN1Cc1ccc(Cl)nc1 [Thiacloprid] | 100 | 100 | – | –
CN1COCN(Cc2cnc(Cl)s2)/C1=N\[N+](=O)[O-] [Thiamethoxam] | 100 | 100 | – | –
O=[N+]([O-])NC1=NCCN1Cc1ccc(Cl)nc1 [Imidacloprid] | 100 | 100 | low lodge rate as compared to the non-treatment section | low lodge rate as compared to the non-treatment section
